Test results as given in patent publication US9345723B2, “Rapid formation of chitosan sponges using guanosine 5′-diphosphate: injectable scaffolds for tissue regeneration and drug delivery” (THE ROYAL INSTITUTION FOR THE ADVANCEMENT OF …, priority 2012, dated 2016).

Experiments:
3T3 fibroblasts [1] = assay: Cytotoxicity of GDP and TPP, MTT assay; type: cell-based; conditions: concentrations higher than 5 mM, 24 hours of culture
Description: FIG. 3 illustrates the comparison of the cytotoxicity of GDP and TPP at different concentrations; FIG. 3A: light microscopy images of 3T3 fibroblasts with different concentrations of GDP and TPP added to the culture media after 24 hours; FIG. 3B: Quantitative analysis, using MTT assay, of the cytotoxicity of TPP and GDP to 3T3 fibroblasts at different concentrations after 24 hours.
Crosslinking of chitosan using GDP occurs due to the electrostatic attractions between the anionic phosphate groups of GDP and the cationic amine groups of chitosan. Another anionic crosslinker used in the art is tripolyphosphate (TPP), which has been widely used to fabricate chitosan nanoparticles, microparticles and fibers (Pati et al., 2011, Carbohyd Res, 346: 2582). The cytotoxicity of GDP was compared to tripolyphosphate (TPP) at concentrations from 0.05 mM to 50 mM using 3T3 fibroblasts.

3T3 fibroblasts [2] = conditions: concentrations higher than 5 mM; recent study (Pati et al., 2012); cited from earlier work

| SMILES | cytotoxicity compared to TPP (3T3 fibroblasts [1]) | cytotoxicity (3T3 fibroblasts [2]) |
| --- | --- | --- |
| Nc1nc2c(ncn2[C@@H]2O[C@H](COP(=O)(O)OP(=O)(O)O)[C@@H](O)[C@H]2O)c(=O)[nH]1 [GDP, Guanosine 5′-Diphosphate] | significantly less cytotoxic | – |
| O=P(O)(O)OP(=O)(O)OP(=O)(O)O [TPP, tripolyphosphate] | – | cytotoxicity of TPP at concentrations higher than 5 mM |
